Source: US20250199015A1, “CYCLIN-DEPENDENT KINASE 2 INHIBITORS FOR MEDICAL TREATMENT” (INCYCLIX BIO, LLC, priority 2022, published 2025)
“Also recorded” adds a separate entry of the source.

How the values were obtained:
[1] = system: pRb, p21, p27, phosphorylated CHK2 in MKN1 cells; experiment: Western blot pRb and cell cycle proteins; assay type: cell-based, human; details: 30-1000 nM, 24 hours
Procedure: The MKN1 human stomach carcinoma cell line was grown in RPMI-1640/1× Glutamax/10% heat inactivate fetal bovine serum and was plated at 300,000 cells/well in Corning 6 well tissue culture treated plates. Cells were incubated at 37° C. for 24 hours prior to addition of 2 replicates of 0.1% DMSO control and 1 replicate for each treatment. […] Cells were collected by washing each well twice with cold PBS, then scraping cells in the presence of 150 μL cold RIPA with protease and phosphatase inhibitors. Lysates were clarified by centrifugation at 14,000×g for 10 min at 4° C. and supernatants transferred to clean tubes. A BCA assay was performed to determine the protein concentration of each lysate. A total of 30 μg of protein was mixed with sample buffer and reducing agent before being run on a 4-12% SDS-PAGE. Protein was transferred to a nitrocellulose membrane and blocked with LI-COR blocking buffer for 1 hr. Membranes were incubated overnight in primary antibody at 4° C. Following 3 washes with TBS-T, membranes were incubated for 45 minutes in LI-COR secondary antibodies. Following 2 washes in TBS-T, and one TBS wash, membranes were scanned using a LI-COR OdysseyCLx. Image studio was used for image analysis.

[2] = system: H526 cells; experiment: Cell cycle by EdU flow cytometry (nocodazole release, time course, cisplatin combination); assay type: cell-based, human; details: 300 nM
Procedure: The H526 human lung carcinoma cell line was grown in RPMI-1640/1× Glutamax/10% fetal bovine serum and was plated at 200,000 cells/well in Corning 6 well tissue culture treated plates. Cells were incubated at 37° C. for 24 hours prior to addition of 50 ng/mL nocodazole to arrest the cells in G2/M. One plate was untreated for comparison. After 16 hours, the asynchronous well and one synchronized well were collected. […] Cells were incubated with 10 μM EdU for 1 hour prior to collected and were then fixed in 1% paraformaldehyde. Cells were incubated with Pacific blue azide dye as described by Thermo Scientific. Cells were then incubated with FarRed dye and RNase. Cells were analyzed on a BD Celesta and data compiled using FloJo and GraphPad (FIG. 23). Cells survived slightly better with lower nocodazole dose (50 vs 100 ng/mL) but there was still cell death observed, particularly following S phase after release.
The H526 human lung carcinoma cell line was grown in RPMI-1640/1× Glutamax/10% fetal bovine serum and was plated at 200,000 cells/well in Corning 6 cm tissue culture treated plates. […] Cells were treated for the indicated amount of time, with 10 μM EdU added for the last hour of treatment. Cells were collected and fixed in 1% paraformaldehyde. Cells were incubated with Alexa 488 azide dye as described by Thermo Scientific. Cells were then incubated with FarRed dye and RNase. Cells were analyzed on a BD Celesta and data compiled using FloJo and GraphPad (FIG. 24).
The H526 human lung carcinoma cell line was grown in RPMI-1640/1× Glutamax/10% fetal bovine serum and was plated at 200,000 cells/well in Corning 6 cm tissue culture treated plates. Cells were incubated at 37° C. for 24 hours prior to addition of the first treatment. […] Cells were treated to 24 hours post-initial treatment, with 10 μM EdU added at hour 23 (FIG. 28A). Cells were collected and fixed in 1% paraformaldehyde. Cells were incubated with pacific blue azide dye as described by Thermo Scientific. Cells were then incubated with antibody against γ-H2AX at a ratio of 1:50 before incubation with FarRed dye and RNase. Cells were analyzed on a BD Celesta and data compiled using FloJo and GraphPad.

[3] = biological target: T1, CYP2D6 (Homo sapiens, UniProt P10635); experiment: CYP inhibition in human liver microsomes; assay type: in vitro ADME
T1 construct: human liver microsomes were incubated in the appropriate isoform-specific probe substrate; from tissue; host or cells: human liver microsomes
T1 sequence (P10635 whole entry, canonical isoform): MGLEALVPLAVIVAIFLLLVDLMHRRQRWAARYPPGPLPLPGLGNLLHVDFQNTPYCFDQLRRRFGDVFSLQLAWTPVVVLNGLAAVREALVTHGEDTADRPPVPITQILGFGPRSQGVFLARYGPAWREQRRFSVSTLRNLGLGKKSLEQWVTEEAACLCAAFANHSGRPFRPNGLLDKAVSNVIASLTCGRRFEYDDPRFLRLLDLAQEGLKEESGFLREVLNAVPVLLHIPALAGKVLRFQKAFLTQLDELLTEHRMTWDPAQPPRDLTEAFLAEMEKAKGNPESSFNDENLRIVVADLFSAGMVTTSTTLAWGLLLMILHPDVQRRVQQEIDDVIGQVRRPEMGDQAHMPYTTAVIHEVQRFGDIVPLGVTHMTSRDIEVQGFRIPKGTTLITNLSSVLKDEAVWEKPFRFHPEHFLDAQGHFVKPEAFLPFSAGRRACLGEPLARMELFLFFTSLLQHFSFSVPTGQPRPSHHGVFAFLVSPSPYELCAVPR
Procedure: (§1) The final DMSO content in the reaction mixtures was ≤0.2%. A selective inhibitor of each isoform was also screened as a positive control. Incubations were terminated by the addition of methanol. The quenched samples were incubated at 4° C. for 10 minutes and filtered by centrifugation for 1 minute at 500 rcf. The supernatants were removed, and the probe substrate metabolites were analyzed by LC-MS/MS.
(§2) The LC-MS/MS system consisted of an AB Sciex API5500 mass spectrometer coupled with an Agilent 1290 liquid chromatography system and an Agilent 1290 Infinity HTS chilled autosampler, controlled through Analyst software (AB Sciex). Samples were analyzed using the following solvent system and gradient: Acquity™ C18 Reverse Phase UPLC HSS T3 (1.8 μm) 2.1×50 mm column; 50° C. Column Temp.; 10 μL Injection Vol.; Mobile Phase A: Water+0.1% Formic Acid; Mobile Phase B: Acetonitrile+0.1% Formic Acid; Flow Rate: 0.6 mL/min.

[4] = biological target: T2, CYP2C19 (Homo sapiens, UniProt P33261); experiment: CYP inhibition in human liver microsomes; assay type: in vitro ADME
T2 construct: human liver microsomes were incubated in the appropriate isoform-specific probe substrate; from tissue; host or cells: human liver microsomes
T2 sequence (P33261 whole entry, canonical isoform): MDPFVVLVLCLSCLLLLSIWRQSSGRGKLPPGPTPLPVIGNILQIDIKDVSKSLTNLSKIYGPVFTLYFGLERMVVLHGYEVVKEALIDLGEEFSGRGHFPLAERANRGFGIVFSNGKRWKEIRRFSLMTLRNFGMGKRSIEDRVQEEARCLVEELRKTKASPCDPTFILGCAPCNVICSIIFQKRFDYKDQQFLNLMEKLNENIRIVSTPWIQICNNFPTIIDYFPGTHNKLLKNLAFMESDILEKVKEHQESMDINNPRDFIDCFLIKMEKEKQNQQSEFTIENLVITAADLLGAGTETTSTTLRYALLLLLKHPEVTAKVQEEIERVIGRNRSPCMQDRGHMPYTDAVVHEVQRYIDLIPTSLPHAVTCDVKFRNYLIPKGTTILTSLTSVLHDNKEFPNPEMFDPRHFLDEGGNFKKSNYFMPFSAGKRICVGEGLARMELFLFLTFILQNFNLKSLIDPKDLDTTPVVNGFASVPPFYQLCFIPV
Procedure: as §1, §2

[5] = biological target: T3, CYP2C8 (Homo sapiens, UniProt P10632); experiment: CYP inhibition in human liver microsomes; assay type: in vitro ADME
T3 construct: human liver microsomes were incubated in the appropriate isoform-specific probe substrate; from tissue; host or cells: human liver microsomes
T3 sequence (P10632 whole entry, canonical isoform): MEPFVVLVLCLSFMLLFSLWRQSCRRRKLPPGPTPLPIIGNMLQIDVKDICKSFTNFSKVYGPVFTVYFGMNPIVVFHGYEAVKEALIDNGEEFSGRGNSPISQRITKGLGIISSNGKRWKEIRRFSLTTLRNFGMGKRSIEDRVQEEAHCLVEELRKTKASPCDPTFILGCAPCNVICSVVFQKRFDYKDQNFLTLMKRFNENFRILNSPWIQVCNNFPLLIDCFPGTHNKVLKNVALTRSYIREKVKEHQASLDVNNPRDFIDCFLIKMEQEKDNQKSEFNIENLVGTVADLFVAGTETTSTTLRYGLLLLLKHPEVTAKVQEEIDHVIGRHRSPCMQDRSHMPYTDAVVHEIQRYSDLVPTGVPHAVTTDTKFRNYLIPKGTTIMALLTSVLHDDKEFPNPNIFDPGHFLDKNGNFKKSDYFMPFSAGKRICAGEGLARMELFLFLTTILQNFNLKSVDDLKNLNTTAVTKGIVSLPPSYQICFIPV
Procedure: as §1, §2

[6] = biological target: T4, CYP2B6 (Homo sapiens, UniProt P20813); experiment: CYP inhibition in human liver microsomes; assay type: in vitro ADME
T4 construct: human liver microsomes were incubated in the appropriate isoform-specific probe substrate; from tissue; host or cells: human liver microsomes
T4 sequence (P20813 whole entry, canonical isoform): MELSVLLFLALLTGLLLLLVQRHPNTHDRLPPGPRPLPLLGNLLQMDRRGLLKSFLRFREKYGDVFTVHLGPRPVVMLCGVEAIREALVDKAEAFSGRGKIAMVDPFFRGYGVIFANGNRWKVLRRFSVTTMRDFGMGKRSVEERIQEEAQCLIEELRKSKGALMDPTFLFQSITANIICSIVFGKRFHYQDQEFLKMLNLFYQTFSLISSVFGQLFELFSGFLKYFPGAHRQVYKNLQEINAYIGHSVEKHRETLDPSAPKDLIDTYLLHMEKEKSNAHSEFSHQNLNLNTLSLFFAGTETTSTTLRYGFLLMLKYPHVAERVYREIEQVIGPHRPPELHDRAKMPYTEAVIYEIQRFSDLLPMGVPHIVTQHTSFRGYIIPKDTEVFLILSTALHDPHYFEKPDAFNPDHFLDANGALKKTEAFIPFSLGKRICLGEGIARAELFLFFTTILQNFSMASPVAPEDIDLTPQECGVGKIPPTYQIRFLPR
Procedure: as §1, §2

[7] = biological target: T5, CYP1A2 (Homo sapiens, UniProt P05177); experiment: CYP inhibition in human liver microsomes; assay type: in vitro ADME
T5 construct: human liver microsomes were incubated in the appropriate isoform-specific probe substrate; from tissue; host or cells: human liver microsomes
T5 sequence (P05177 whole entry, canonical isoform): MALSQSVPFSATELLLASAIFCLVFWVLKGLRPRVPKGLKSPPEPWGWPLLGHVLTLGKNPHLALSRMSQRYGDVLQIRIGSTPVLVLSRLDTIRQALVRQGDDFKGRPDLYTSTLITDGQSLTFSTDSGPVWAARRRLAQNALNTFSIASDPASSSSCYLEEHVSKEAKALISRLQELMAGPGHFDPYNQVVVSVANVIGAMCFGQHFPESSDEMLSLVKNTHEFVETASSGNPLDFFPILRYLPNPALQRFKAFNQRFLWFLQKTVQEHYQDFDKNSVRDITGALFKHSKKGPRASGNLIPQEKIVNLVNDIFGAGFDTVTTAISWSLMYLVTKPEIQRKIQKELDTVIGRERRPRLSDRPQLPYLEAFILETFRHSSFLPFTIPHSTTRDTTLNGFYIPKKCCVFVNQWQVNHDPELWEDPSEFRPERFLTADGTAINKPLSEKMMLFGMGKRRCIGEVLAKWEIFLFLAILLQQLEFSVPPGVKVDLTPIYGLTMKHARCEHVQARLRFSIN
Procedure: as §1, §2

[8] = biological target: T6, CYP2C9 (Homo sapiens, UniProt P11712); experiment: CYP inhibition in human liver microsomes; assay type: in vitro ADME
T6 construct: human liver microsomes were incubated in the appropriate isoform-specific probe substrate; from tissue; host or cells: human liver microsomes
T6 sequence (P11712 whole entry, canonical isoform): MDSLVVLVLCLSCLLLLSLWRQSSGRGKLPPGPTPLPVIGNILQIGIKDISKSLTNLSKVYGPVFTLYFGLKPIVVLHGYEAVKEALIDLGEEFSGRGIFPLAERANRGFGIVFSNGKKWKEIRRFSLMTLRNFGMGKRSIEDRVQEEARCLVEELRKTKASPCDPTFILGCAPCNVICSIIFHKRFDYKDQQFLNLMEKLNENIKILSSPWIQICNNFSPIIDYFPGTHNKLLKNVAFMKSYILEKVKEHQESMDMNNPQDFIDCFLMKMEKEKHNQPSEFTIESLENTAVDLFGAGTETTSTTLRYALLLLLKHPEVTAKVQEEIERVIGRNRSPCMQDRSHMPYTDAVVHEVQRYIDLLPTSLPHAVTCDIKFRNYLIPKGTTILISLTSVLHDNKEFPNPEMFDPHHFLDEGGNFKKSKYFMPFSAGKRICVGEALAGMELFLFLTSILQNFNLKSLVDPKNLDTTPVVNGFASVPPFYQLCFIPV
Procedure: as §1, §2

[9] = biological target: T7, CYP3A4 (testosterone as substrate) (Homo sapiens, UniProt P08684); experiment: CYP inhibition in human liver microsomes; assay type: in vitro ADME
T7 construct: human liver microsomes were incubated in the appropriate isoform-specific probe substrate; from tissue; host or cells: human liver microsomes
T7 sequence (P08684 whole entry, canonical isoform): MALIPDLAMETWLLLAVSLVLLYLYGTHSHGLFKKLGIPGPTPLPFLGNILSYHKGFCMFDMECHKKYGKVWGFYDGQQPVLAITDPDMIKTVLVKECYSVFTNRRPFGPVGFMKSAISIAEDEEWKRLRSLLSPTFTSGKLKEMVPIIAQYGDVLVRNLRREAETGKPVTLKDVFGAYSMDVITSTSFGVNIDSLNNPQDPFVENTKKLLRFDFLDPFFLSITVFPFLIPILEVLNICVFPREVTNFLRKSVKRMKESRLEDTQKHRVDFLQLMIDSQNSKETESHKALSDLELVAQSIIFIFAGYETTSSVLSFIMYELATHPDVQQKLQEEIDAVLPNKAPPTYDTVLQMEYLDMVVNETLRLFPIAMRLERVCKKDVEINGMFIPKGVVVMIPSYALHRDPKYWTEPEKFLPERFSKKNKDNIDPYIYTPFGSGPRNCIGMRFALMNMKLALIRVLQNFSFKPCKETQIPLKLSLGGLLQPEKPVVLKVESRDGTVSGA
Procedure: as §1, §2

[10] = biological target: T8, CYP3A4 (midazolam as substrate) (Homo sapiens, UniProt P08684); experiment: CYP inhibition in human liver microsomes; assay type: in vitro ADME
T8 construct: human liver microsomes were incubated in the appropriate isoform-specific probe substrate; from tissue; host or cells: human liver microsomes
T8 sequence (P08684 whole entry, canonical isoform): as above
Procedure: as §1, §2

[11] = Electrocardiogram evaluations in 28-day repeat-dose toxicity study; assay type: in vivo, dogs; details: any dose level
Description: Safety pharmacology studies described more fully below included a functional observational battery (FOB) testing in a 28-day repeat-dose toxicity study in rats, electrocardiogram (ECG) evaluations in a 28-day repeat-dose toxicity study in dogs, and a single-dose respiratory safety pharmacology study in rats.

NS(=O)(=O)c1ccc(Nc2ncc3cc4n(c3n2)C2(CCCCC2)C(=O)NN4)cc1 [Compound I]
pRb levels [1]: dose-dependent response decrease in pRb levels
S phase entry after nocodazole release [2]: slower to enter S phase
cells in G1 phase compared with PF-07104091 ([2]; 24 hours): Substantially fewer H526 cells treated with Compound I were in G1 phase
cells in G2/M phase compared to control ([2]; 24 hours): increase of cells in G2/M phase
cells in S phase compared with PF-07104091 ([2]; 48 hours): substantially fewer H526 cells treated with Compound I were in S phase
IC50 ([3]; CYP2D6, substrate Dextromethorphan, human liver microsomes): > 25 µM
CYP2D6 inhibition ([3]; up to 25 μM): Marginal to no inhibition
IC50 ([4]; pH 7.4, probe mephenytoin, CYP2C19, substrate Mephenytoin, human liver microsomes): 25 µM
CYP2C19 inhibition ([4]; up to 25 μM): Marginal to no inhibition
IC50 ([5]; CYP2C8, substrate Amodiaquine, human liver microsomes): > 25 µM
CYP2C8 inhibition ([5]; up to 25 μM): Marginal to no inhibition
IC50 ([6]; CYP2B6, substrate Bupropion, human liver microsomes): > 25 µM
CYP2B6 inhibition ([6]; up to 25 μM): Marginal to no inhibition
IC50 ([7]; CYP1A2, substrate Tacrine, human liver microsomes): > 25 µM
CYP1A2 inhibition ([7]; up to 25 μM): Marginal to no inhibition
IC50 [8]: 14.9 µM
IC50 [9]: 9.59 µM
IC50 ([10]; CYP3A4, substrate Midazolam, human liver microsomes): 24.3 µM
CYP3A4 inhibition (midazolam as substrate) ([10]; up to 25 μM): Marginal to no inhibition
ECGs [11]: did not affect; also recorded: within normal limits
